According to patent US8959984B2, “Proteome-wide quantification of small molecule binding to cellular target proteins” (priority 2007, dated 2015):

How the values were obtained:
Experiment in all cases: binding to AX14596 beads (HeLa lysate, SILAC MS)
IGF2BP1 = IGF2BP1 (Homo sapiens, UniProt Q9NZI8)
Experimental: (§1) Differentially SILAC-encoded cell lysates were either incubated with the inhibitor beads displaying immobilized AX14596 or control resin devoid of ligand. In parallel, the supernatant from the first binding step was subjected to a second incubation with the AX14596 resin (FIG. 4). The resulting three elution fractions were combined, resolved by gel electrophoresis, proteolytically digested and the relative abundance of the retained proteins quantified. Proteins showing considerable binding to the control resin were identified as non-specific interactors and therefore not considered further. […] These target-specific ratios were similar in “label switch” experiments (FIGS. 6a and 6c). The binding equilibrium was determined in parallel control SILAC experiments as well as the excess of the immobilized compound over its cellular targets, the excess preferably being a molar excess (FIG. 7 and FIG. 8).
(§2) Cysteine carbamidomethylation was set as a fixed modification and N-acetyl protein and oxidized methionine were allowed as variable modifications. Spectra that were determined to result from heavy labeled peptides in the pre-search detection of SILAC partners by MaxQuant were searched with the fixed modifications Lys^4, Lys^8, Arg^6 and Arg^10, whereas MS/MS spectra for which no SILAC state could be assigned before database searching were searched with Lys^4, Lys^8, Arg^6 and Arg^10 as variable modifications. The mass tolerance was set to 5 ppm for monoisotopic precursor ions and to 0.5 Da for MS/MS peaks. The minimum peptide length was set to 6 amino acids and up to three missed cleavages and three isotopically labeled amino acids were permitted per peptide. The accepted false discovery rate (FDR) was 1% for the proteins and peptides. The cut-off for the posterior error probability (PEP) of peptides was set to 10%. Peptide PEPs were determined by generating Mascot score and peptide-length-dependent histograms for both the forward and the reverse hits and then deriving the probability of a false identification for a given top-scoring peptide using Bayes' theorem. The PEPs of peptides belonging to the same proteins were then multiplied. Each peptide sequence was considered only once with the lowest PEP determined in case of multiple sequencing of the same isotopic pattern or of peptide species with different SILAC, charge or modification states. Proteins were then sorted according to their products of their peptide PEPs and included until a FDR of 1% was reached according to the fraction of reverse proteins contained in the protein list. In addition to the FDR threshold applied for protein identification, proteins were only included when they were identified with at least two peptides (of which one was required to be unique for the protein) and quantified if at least on quantifiable SILAC pair was associated with them. Outliers were not removed as protein ratios were calculated as the median instead of the average of all peptide ratios. For peptides shared among different identified proteins, SILAC ratios were only considered for the ratio of the protein identified with the highest number of unique peptides. Protein ratios for the different in vitro association experiments were corrected for the initial SILAC pooling ratio, which was determined from the median of protein ratios in pooled SILAC-encoded cell extracts.

LYN = LYN (Homo sapiens, UniProt P07948)
Experimental: as §1, §2

PKD3 (PRKD3) = target: T1, PKD3 (PRKD3) (Homo sapiens, UniProt O94806)
T1 construct: endogenous in cells; host or cells: HeLa S3
Experimental: as §1, §2

SNRPE = SNRPE (Homo sapiens, UniProt P62304)
Experimental: as §1, §2

SgK085 (MYLK3) = target: T2, SgK085 (MYLK3) (Homo sapiens, UniProt Q32MK0)
T2 sequence (Q32MK0 1-819): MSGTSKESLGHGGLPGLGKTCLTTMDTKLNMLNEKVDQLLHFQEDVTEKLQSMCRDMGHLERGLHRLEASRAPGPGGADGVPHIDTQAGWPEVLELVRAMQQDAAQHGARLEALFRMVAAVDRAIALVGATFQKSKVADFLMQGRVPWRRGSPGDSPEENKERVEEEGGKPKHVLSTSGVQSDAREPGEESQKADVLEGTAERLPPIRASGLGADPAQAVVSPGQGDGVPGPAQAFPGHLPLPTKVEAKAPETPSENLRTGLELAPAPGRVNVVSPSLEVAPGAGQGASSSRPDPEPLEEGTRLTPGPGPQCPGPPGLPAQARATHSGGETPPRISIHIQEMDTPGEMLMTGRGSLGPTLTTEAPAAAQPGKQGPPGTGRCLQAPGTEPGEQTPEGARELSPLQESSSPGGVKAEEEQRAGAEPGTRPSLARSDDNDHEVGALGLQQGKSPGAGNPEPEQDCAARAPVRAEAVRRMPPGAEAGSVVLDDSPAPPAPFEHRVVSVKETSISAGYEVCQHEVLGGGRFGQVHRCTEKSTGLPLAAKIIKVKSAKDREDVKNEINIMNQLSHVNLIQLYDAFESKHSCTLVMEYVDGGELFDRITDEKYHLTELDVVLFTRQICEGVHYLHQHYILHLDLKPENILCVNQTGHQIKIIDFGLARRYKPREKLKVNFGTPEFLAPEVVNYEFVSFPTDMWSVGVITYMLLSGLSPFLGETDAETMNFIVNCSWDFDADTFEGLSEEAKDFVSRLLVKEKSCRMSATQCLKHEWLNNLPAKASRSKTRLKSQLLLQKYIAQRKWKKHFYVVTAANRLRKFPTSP
Experimental: as §1, §2

[1] = target: p38a (MAPK14, IPI00002857) (Homo sapiens, UniProt Q16539)
Experimental: as §1, §2

Sequence of LYN (P07948 whole entry): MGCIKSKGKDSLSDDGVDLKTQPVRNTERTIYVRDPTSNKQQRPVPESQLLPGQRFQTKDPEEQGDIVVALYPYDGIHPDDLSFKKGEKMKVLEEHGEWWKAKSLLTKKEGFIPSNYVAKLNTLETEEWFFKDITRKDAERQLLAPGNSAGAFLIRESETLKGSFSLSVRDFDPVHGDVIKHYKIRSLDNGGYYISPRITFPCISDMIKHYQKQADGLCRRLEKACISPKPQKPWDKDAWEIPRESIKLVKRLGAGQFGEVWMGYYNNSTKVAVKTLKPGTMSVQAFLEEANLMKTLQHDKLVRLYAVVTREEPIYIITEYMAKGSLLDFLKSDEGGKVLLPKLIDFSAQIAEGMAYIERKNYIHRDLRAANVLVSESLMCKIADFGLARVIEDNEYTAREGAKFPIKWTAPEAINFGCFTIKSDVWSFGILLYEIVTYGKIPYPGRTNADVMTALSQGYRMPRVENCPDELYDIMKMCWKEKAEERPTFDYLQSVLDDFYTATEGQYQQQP
Sequence of IGF2BP1 (Q9NZI8 whole entry): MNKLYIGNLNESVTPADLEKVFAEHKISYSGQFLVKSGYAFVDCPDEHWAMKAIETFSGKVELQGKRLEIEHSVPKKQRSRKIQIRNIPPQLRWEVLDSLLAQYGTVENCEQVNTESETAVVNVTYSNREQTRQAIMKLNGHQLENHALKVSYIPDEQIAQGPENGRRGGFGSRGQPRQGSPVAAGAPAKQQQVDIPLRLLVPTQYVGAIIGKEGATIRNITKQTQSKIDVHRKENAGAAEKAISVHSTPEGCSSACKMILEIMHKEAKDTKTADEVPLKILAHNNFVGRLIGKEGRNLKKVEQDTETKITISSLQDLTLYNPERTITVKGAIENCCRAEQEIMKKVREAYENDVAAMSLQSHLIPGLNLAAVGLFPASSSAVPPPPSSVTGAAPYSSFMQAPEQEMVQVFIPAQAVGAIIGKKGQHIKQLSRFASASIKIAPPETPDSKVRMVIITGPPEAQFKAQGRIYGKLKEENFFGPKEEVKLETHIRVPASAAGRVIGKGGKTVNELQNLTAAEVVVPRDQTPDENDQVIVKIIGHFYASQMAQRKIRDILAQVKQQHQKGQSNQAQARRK
Sequence of SNRPE (P62304 whole entry): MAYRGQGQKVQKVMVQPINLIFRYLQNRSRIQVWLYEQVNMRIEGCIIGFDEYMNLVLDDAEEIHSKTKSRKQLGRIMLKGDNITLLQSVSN
T1 sequence (O94806 whole entry): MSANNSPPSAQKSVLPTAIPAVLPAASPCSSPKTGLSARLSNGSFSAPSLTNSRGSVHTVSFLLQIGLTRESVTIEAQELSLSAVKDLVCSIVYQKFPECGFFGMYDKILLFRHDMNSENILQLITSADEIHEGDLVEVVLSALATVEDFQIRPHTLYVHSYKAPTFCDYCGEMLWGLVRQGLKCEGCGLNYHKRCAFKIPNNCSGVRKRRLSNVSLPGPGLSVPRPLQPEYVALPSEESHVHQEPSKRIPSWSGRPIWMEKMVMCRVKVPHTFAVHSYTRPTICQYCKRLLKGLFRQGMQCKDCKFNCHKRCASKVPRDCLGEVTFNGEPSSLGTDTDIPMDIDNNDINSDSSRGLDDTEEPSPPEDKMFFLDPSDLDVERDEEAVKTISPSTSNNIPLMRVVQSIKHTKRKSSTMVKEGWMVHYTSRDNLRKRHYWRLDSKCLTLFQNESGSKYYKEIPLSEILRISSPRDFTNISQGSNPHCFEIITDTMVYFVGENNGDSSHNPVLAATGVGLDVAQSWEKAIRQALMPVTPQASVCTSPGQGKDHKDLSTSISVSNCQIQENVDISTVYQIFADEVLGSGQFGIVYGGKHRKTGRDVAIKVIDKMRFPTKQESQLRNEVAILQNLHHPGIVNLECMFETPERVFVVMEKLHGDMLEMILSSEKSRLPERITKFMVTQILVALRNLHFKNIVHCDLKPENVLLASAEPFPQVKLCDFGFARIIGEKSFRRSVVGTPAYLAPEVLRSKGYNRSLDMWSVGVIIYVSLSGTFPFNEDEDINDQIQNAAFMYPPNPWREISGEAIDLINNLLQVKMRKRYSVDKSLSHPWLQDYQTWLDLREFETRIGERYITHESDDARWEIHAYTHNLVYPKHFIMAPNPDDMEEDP
Sequence of p38a (MAPK14, IPI00002857) (Q16539 whole entry): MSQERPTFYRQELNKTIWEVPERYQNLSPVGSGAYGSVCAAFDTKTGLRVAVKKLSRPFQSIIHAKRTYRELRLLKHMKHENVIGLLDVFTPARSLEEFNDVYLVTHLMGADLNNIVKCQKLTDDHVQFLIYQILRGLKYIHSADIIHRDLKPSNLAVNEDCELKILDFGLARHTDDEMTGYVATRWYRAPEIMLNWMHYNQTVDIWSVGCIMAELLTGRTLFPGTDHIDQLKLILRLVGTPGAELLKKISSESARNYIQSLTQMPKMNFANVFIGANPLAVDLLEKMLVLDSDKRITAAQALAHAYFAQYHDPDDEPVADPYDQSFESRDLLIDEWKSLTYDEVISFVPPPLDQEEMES

COc1cc2ncnc(Nc3ccc(F)c(Cl)c3)c2cc1OCCCN [AX14596]
Ki (IGF2BP1): 367 µM | rAVERAGE (2. inc/1. inc) (IGF2BP1): 0.79 | rAVERAGE (control/1. inc) (IGF2BP1): 0.19 | Ki (LYN): 195 µM | r (3 mg/1 mg lysate) (LYN): 2.14 | r (5 h/2.5 h inc. time) (LYN): 0.98 | rAVERAGE (2. inc/1. inc) (LYN): 0.66 | rAVERAGE (control/1. inc) (LYN): 0.07 | % BOUND (LYN; bound to AX14596 beads): 34% | Ki (PKD3 (PRKD3)): 1510 µM | r (3 mg/1 mg lysate) (PKD3 (PRKD3)): 2.49 | r (5 h/2.5 h inc. time) (PKD3 (PRKD3)): 1.05 | rAVERAGE (2. inc/1. inc) (PKD3 (PRKD3)): 0.94 | rAVERAGE (control/1. inc) (PKD3 (PRKD3)): 0.08 | Ki (SNRPE): 106 µM | r (3 mg/1 mg lysate) (SNRPE): 2.57 | r (5 h/2.5 h inc. time) (SNRPE): 1.88 | rAVERAGE (2. inc/1. inc) (SNRPE): 0.51 | rAVERAGE (control/1. inc) (SNRPE): 0.07 | Ki (SgK085 (MYLK3)): 186 µM | r (3 mg/1 mg lysate) (SgK085 (MYLK3)): 2.56 | r (5 h/2.5 h inc. time) (SgK085 (MYLK3)): 0.97 | rAVERAGE (2. inc/1. inc) (SgK085 (MYLK3)): 0.65 | rAVERAGE (control/1. inc) (SgK085 (MYLK3)): 0.00 | Ki [1]: 332 µM | r (3 mg/1 mg lysate) [1]: 2.74 | r (5 h/2.5 h inc. time) [1]: 1.15 | rAVERAGE (2. inc/1. inc) [1]: 0.77 | rAVERAGE (control/1. inc) [1]: 0.06
